Values of other authors, collected in patent US20080254084A1, “Antimicrobial Preparations Having a Content of Octenidine Dihydrochloride Encapsulated in Liposomes” (Air Liquide Sante (International), priority 2005, published 2008).
Where a name gives a salt, the structure may show the parent alone.

Tests used:
[1] = octenidine dihydrochloride concentration
[2] = test system: a large number of microbes; settings: concentrations of >0.001% octenidine dihydrochloride, within 1 min

## CCCCCCCCNc1cc[n+](CCCCCCCCCC[n+]2ccc(NCCCCCCCC)cc2)cc1 [octenidine dihydrochloride]
[1]
  concentration at which cytotoxicity is present: > 0.001 % by weight
[2]
  reduction factor: 5 decadic units
